According to patent US4931462A, “Heterocyclic substituted alkylsulphonamides pharmaceutical compositions containing them, and arterial disease treatment therewith” (Boehringer Mannheim GmbH, priority 1987, dated 1990):

Legend:
[1] = test system: thrombocyte aggregation (TX antagonistic effect); test: TX antagonistic effect: inhibition of U 46619-induced thrombocyte aggregation in platelet-rich plasma of healthy blood donors (Born and Cross); assay type: cell-based; settings: Erythrocyte, 5 min; U 46619-induced aggregation, human platelet-rich plasma, citrate, followed over 5 minutes; read-out: Human Erythrocytes IC50
Excerpt: 1. TX Antagonistic Effect of Human Erythrocytes
The thrombocyte aggregation is investigated by the method of Born and Cross (J. Physiol. 168, 178 (1963) in platelet-rich plasma of healthy blood donors. To inhibit clotting, the blood is mixed with 3.2% citrate in a ratio by volume of 1:9.
To induce thrombocyte aggregation, U 46619 (Upjohn & Co., Kalamazoo, U.S.A.), which is a stable analog of the prostaglandin endoperoxide […], is used. U 46619 was characterized as a selective thromboxane mimetic (Coleman et al., Brit. J. Pharmacol. 68, 127 P., 1980).
The aggregation test is carried out in a 4-channel aggregometer (Profiler® of the Bio/Data Co., U.S.A.). The course of the aggregation is followed over a period of 5 minutes. At the end of the test, the degree of aggregation attained is printed out. These values, which are obtained in the presence of different concentrations of the substance to be tested, are used for the determination of the EC50 for the TX antagonistic effect. The effectiveness varies inversely with the EC50 value.

[2] = test system: U 46619-induced pulmonary embolism; test: Preventing the U 46619-induced pulmonary embolism (survival rate of mouse); assay type: in vivo, mouse (male NMRI); settings: lethal U 46619 (800-1000 μg/kg) into tail vein after 4 hours, survivors/animals used; for Survival Rate of Mouse 25 mg/kg, 4 h: 25 mg/kg by stomach tube in 1% methylcellulose; for Survival Rate of Mouse 1 mg/kg, 4 h: 1 mg/kg by stomach tube in 1% methylcellulose
Procedure: 2. Preventing the U 46619-Induced Pulmonary Embolism
Male NMRI mice, with a body weight of 25 g. are used. The test substance is suspended in 1% methylcellulose and administered to the experimental animals with the help of a stomach tube. The provocation test consists of injecting the lethal dose (800-1000 μg/kg) of the thromboxane mimetic (U 46619 of the Upjohn Co.) rapidly into the tail vein. The duration of the specific antagonistic effect is tested by pretreating the animals with 25 mg or 1 mg/kg of the different test substances and injecting U 46619 after 4 hours. The survival rate indicates how many of the animals used have survived the injection of the thromboxane mimetic.

Row | Compound | IC50 [1] [nM] | Survival Rate of Mouse 25 mg/kg, 4 h [2] | Survival Rate of Mouse 1 mg/kg, 4 h [2]
1 | Cc1ccc(S(=O)(=O)NCCc2ccc3oc(C(=O)O)cc3c2)cc1 [12 b] | 1600 | 4/5 | –
2 | O=C(O)c1cc2cc(CCNS(=O)(=O)c3ccc(Br)cc3)ccc2o1 [12 e] | 2700 | 5/5 | –
3 | Cc1c(C(=O)O)oc2ccc(CCNS(=O)(=O)c3ccc(Cl)cc3)cc12 [12 g] | 1700 | 5/5 | –
4 | O=C(O)c1cc2cc(CCNS(=O)(=O)c3ccc(Cl)cc3)ccc2[nH]1 [12 l] | 1400 | – | 2/5
5 | O=C(O)COc1ccc(CCNS(=O)(=O)c2ccccc2)cc1 [Comparison Compound, 4-[2-(benzenesulfonylamino)-ethyl]-7-phenoxyacetic acid, reference compound] | 1850 | 2/2 | –
6 | O=C(O)c1cc2cc(CCNS(=O)(=O)c3ccc(Cl)cc3)ccc2o1 [Example 11, 5-[2-(4-Chlorobenzenesulphonamido)-ethyl]-benzo[b]-furan-2-carboxylic acid] | 750 | 10/10 | 4/5
7 | O=C(O)C1Cc2cc(CCNS(=O)(=O)c3ccccc3)ccc2O1 (stereo not drawn) [Example 13, 5-(2-Benzenesulphonamidoethyl)-2,3-dihydrobenzo[b]furan-2-carboxylic acid] | 1200 | 5/5 | –
